Results from paper PMC6813925, “Zearalenone and ß-Zearalenol But Not Their Glucosides Inhibit Heat Shock Protein 90 ATPase Activity” (Frontiers in Pharmacology, 2019).

How the values were obtained:
AtHSP90.1 [1] = target: T1, AtHSP90.1 (Arabidopsis thaliana, UniProt P27323); test: HSP90 ATPase activity assay (malachite green), AtHSP90.1; format: biochemical
T1 construct: The coding region of AtHSP90.1 (At5g52640) was amplified from cDNA; 6xHis; made in house; host or cells: Escherichia coli BL21 (DE3) or phosphatase-deficient strain K894
Source text: (§1) For initial experiments, we expressed and purified the Saccharomyces cerevisiae ScHsp82 protein. The HSP82 coding region was amplified using the primer pair HSP82-1fwd (5’-[…]-3’) and HSP82-2rev (5’-[…]-3’), which contain BamHI and HindIII sites (underlined), respectively. The resulting 2,156 bp fragment was digested with BamHI and HindIII and ligated into the expression vector pQE-80L (Qiagen) cleaved with the same enzymes yielding plasmid pGW870. The coding region of AtHSP90.1 (At5g52640) was amplified from cDNA with the oligonucleotide primers 5’-[…]-3’ and 5’-[…]-3’. The resulting PCR product was digested with NdeI and SpeI (restriction sites on primers underlined) and introduced to pQE-80L (Qiagen), cleaved with the same enzymes to obtain the construct pQE80:AtHSP90.1. The cDNA of wheat HSP90 gene TaHSP90-2 (Triticum aestivum; DQ665784.1) was amplified with 5’-[…]-3’ and 5’-[…]-3’ (NdeI and SpeI, respectively) and introduced to pQE-80L. All constructs were verified by sequencing.
(§2) Protein production was induced by isopropyl β-D-1-thiogalactopyranoside (IPTG) following the supplier’s instructions. Protein purification was performed on an Äkta system (GE Healthcare, Uppsala, Sweden). […] Further purification was done by anion exchange chromatography on a 1 ml Resource Q column (GE Healthcare). Proteins were bound to the column in 25 mM Tris/Cl pH 7.5 and eluted with a linear gradient of 0–1 M NaCl in 15 column volumes. The obtained fractions were desalted using a Sephadex™ G-25 fine column, and the purified recombinant proteins were stored in the final elution buffer (25 mM Tris/Cl pH 7.5) at 4°C.
The ATPase activities of recombinant proteins AtHSP90.1, TaHSP90-2, and ScHsp82 were assayed following the method of [Rowlands et al. (2004)] using an ATP concentration of 1 mM. […] After this time, the released inorganic phosphate was quantified with the malachite green colorimetric assay ([Rowlands et al., 2004]). The reaction was stopped by adding 10 µl of 34% sodium citrate to each well after 20 min incubation at room temperature, and the absorbance was measured at 620 nm. […]

TaHSP90-2 = TaHSP90-2 (Triticum aestivum, UniProt A0ACM8QAI9); test: biochemical; conditions: for ATPase inhibition of TaHSP90-2: Figure 4B-D; for remaining activity at 100 µM: read-out: remaining (residual) ATPase activity of TaHSP90-2
Source text: as §1, §2
(§3) The ATPase activities of recombinant proteins AtHSP90.1, TaHSP90-2, and ScHsp82 were assayed following the method of [Rowlands et al. (2004)] using an ATP concentration of 1 mM. The effect of several potential inhibitors was tested in 96-well plates using toxin concentrations ranging from 1 to 150 µM. All compounds were dissolved in 20% DMSO and further diluted. The assays were performed in a total volume of 25 µl with a final protein concentration of 0.2 µg/µl and 4% DMSO. Controls were incubated with the solvent DMSO without inhibitor. The reactions were incubated at 37°C for 3 h in the dark. After this time, the released inorganic phosphate was quantified with the malachite green colorimetric assay ([Rowlands et al., 2004]). The reaction was stopped by adding 10 µl of 34% sodium citrate to each well after 20 min incubation at room temperature, and the absorbance was measured at 620 nm.
To test whether the yeast model reflects the situation in dicot and monocots plants, AtHSP90.1 and an HSP90 protein from wheat were expressed and purified. The wheat cDNA previously named “TaHSP90-2” corresponds to UniProtKB Q0Q0I7 (Q0Q0I7_WHEAT). This gene belongs to a family of nine highly similar cytosolic HSP90 proteins of wheat, has been named HSP90.3-D1 in a functional study ([Wang et al., 2011]), and is located on chromosome 5D (= EnsemblPlants Traes_5DL_89CF7F5DE).

[2] = Stability of glucosides under ATPase assay conditions (LC-MS/MS before and after incubation); format: physicochemical; conditions: LC-MS/MS before and after incubation period, p = 0.21
Procedure: as §3
Likewise, we found all glucosides of ZEN, αZEL, and βZEL stable under identical conditions, with recoveries of > 88%, p > 0.05, in each case.

[3] = Solubility and handling stability observations; format: physicochemical
Source text: (§4) Previously, we had shown that AtUGT73C6, when expressed in a multiple-ABC-transporter–deficient yeast strain, leads to the production of ZEN-14-glucoside [old nomenclature ZEN-4-glucoside, [Metzler (2011)]] after ZEN treatment ([Poppenberger et al., 2006]). […] We therefore generated RAD-glucoside for in vitro tests. […] Therefore, we were unable to determine at which position RAD was glucosylated.

[4] = test system: Arabidopsis thaliana plants containing RPS2; parameters: method as in Takahashi et al., 2003; conditions: 10 μM; ref Takahashi et al., 2003; cited from earlier work
ScHsp82p = target: T2, ScHsp82p (Saccharomyces cerevisiae, UniProt P02829); test: biochemical; format: biochemical; conditions: for remaining ATPase activity of ScHsp82p: at 100 µM, relative to DMSO control
T2 construct: The HSP82 coding region was amplified using the primer pair HSP82-1fwd; 6xHis (N); made in house; host or cells: Escherichia coli BL21 (DE3) or phosphatase-deficient strain K894
Source text: as §1, with “The resulting 2,156 bp fragment was digested with BamHI and HindIII and ligated into the expression vector pQE-80L (Qiagen) cleaved with the same enzymes yielding plasmid pGW870.” left out
as §2
All compounds were dissolved in 20% DMSO and further diluted. The assays were performed in a total volume of 25 µl with a final protein concentration of 0.2 µg/µl and 4% DMSO. Controls were incubated with the solvent DMSO without inhibitor. The reactions were incubated at 37°C for 3 h in the dark.

yeast strain YZGA515 = test: Yeast spotting assay for RAD toxicity; format: cell-based, Saccharomyces cerevisiae; conditions: multiple-ABC-transporter-deficient yeast strain, SC-LEU plates with 40 mg/L RAD
Source text: as §4
Spotting of YZGA515 transformants (three serial 10^−1 dilutions) expressing either AtUGT73C6 (upper row) or containing the empty vector.

AtHSP90.1 [5] = test system: AtHSP90.1; parameters: method as in Werner, 2005; conditions: 50 µM, 2 h, vs DMSO; ref Werner, 2005; cited from earlier work
AtHSP90.1 [6] = test: Quantitative real-time PCR of AtHSP90.1 in seedlings; format: cell-based, Arabidopsis thaliana; conditions: 50 µM, 2 h, vs mock control DMSO, reference gene AT5G46630
Procedure: A. thaliana (ecotype Columbia, Col-0) seeds were surface-sterilized using sodium hypochlorite (2%) plus 0.01% Triton X for 10 min and rinsed twice with sterile water. Seeds were distributed in 24-well plates (4 wells per treatment, 30–40 seeds per well) and re-suspended in 1 ml (per well) of liquid Murashige and Skoog medium (“MS” basal salt mixture, Sigma) supplemented with 1% sucrose. After 2 days of stratification at 4°C, the plates were transferred to a growth chamber at 21°C under a 16 h light/8 h dark photoperiod.
Total RNA was extracted from 13-day-old A. thaliana (Col-0) seedlings grown in liquid MS medium supplemented with 2.5% sucrose and 50 μM ZEN for 2 h. […] RNA was quantified with the Qubit (Invitrogen) and NanoDrop (Peqlab) systems. […] Absolute and relative expression were calculated with a dilution series of purified AtHSP90.1 and AP2M PCR fragments of known molar concentration in each RT-qPCR run. […] Each sample was measured in triplicate from four independent cDNAs. […]
Figure 2 Transcriptional response of Arabidopsis thaliana HSP90 genes to zearalenone (ZEN). […] (B) Quantitative real-time PCR of A. thaliana HSP90.1 after 2 h treatment with ZEN (50 µM) or DMSO. The results are expressed as relative expression to the reference gene ADAPTOR PROTEIN-2 MU-ADAPTIN (AP2M; AT5G46630) and represent the means of four biological replicates ± standard deviation.

Sequence of TaHSP90-2 (A0ACM8QAI9 1-700): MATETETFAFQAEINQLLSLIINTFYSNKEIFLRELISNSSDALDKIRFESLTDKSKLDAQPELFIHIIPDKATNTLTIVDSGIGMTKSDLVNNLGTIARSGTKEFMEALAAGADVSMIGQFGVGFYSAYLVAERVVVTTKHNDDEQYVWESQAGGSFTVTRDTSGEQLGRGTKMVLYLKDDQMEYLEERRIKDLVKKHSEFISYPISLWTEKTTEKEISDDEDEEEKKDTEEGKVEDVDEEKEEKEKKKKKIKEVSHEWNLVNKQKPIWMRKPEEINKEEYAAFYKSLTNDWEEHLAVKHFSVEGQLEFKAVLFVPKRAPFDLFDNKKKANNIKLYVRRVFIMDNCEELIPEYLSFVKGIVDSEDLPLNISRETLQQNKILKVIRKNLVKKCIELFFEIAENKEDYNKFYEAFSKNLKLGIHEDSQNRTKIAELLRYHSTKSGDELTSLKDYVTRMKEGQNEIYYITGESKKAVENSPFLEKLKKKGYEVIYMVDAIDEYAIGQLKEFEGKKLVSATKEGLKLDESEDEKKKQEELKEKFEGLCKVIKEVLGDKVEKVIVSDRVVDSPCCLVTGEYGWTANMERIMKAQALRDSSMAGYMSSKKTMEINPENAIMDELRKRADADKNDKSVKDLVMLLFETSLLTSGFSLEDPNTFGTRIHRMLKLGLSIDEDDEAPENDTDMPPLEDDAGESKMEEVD
T1 sequence (P27323 whole entry): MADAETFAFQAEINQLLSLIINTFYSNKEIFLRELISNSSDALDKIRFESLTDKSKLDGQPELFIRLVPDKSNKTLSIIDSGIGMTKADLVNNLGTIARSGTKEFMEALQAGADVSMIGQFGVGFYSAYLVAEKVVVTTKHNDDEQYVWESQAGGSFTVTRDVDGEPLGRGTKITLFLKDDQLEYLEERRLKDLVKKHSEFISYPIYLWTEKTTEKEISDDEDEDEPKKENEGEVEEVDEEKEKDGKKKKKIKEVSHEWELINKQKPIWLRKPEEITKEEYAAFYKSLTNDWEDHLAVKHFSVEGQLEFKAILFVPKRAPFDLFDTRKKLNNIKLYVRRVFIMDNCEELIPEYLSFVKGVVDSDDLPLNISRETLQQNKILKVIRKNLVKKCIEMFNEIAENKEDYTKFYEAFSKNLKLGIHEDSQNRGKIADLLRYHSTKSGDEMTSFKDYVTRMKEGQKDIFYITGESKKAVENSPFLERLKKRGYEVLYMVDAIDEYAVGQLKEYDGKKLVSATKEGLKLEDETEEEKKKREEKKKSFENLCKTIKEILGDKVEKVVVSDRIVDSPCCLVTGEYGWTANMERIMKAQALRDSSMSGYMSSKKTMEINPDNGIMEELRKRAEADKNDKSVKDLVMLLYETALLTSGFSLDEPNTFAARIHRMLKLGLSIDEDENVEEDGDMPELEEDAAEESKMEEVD
T2 sequence (P02829 whole entry): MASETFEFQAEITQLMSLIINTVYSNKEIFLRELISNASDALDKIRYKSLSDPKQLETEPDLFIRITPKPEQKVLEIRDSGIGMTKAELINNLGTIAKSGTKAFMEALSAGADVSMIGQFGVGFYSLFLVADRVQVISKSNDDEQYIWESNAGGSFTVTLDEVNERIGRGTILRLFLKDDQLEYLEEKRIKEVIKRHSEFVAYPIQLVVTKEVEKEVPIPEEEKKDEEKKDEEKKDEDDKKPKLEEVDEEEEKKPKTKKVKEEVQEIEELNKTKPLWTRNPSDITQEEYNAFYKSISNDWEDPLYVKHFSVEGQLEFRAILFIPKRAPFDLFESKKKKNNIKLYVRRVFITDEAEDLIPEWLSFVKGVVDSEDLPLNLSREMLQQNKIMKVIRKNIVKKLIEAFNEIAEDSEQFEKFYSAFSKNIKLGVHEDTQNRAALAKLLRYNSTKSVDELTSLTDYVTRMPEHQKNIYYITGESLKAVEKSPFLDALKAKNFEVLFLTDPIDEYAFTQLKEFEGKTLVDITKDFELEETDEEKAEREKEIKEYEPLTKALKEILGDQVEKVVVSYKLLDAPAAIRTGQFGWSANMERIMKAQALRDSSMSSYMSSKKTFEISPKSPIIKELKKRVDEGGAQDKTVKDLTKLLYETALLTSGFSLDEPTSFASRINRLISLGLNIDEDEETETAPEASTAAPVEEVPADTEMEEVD

With C[C@H]1CCCC(=O)CCC/C=C/c2cc(O[C@@H]3O[C@H](CO)[C@@H](O)[C@H](O)[C@H]3O)cc(O)c2C(=O)O1 [ZEN14G, zearalenone-14-O-ß-D-glucopyranoside] the “ATPase inhibition of AtHSP90.1” value (AtHSP90.1 [1]; 100 µM, p = 0.75) was “inactive” and the “ATPase inhibition of TaHSP90-2” value (TaHSP90-2) was “did not cause activity reduction”.
For radicicol-glucoside [RAD-glucoside], the “change in concentration under assay conditions” value [2] was “no significant” and the stability on handling ([3]; particularly when brought to dryness) was “appears unstable”.
For COC1=C2C[C@@H](C)C[C@H](OC)[C@H](O)[C@@H](C)/C=C(\C)[C@H](OC(N)=O)[C@@H](OC)/C=C\C=C(/C)C(=O)NC(=CC1=O)C2=O [geldanamycin], the “hypersensitive response triggered by Pseudomonas syringae DC3000 (avrRpt2)” value [4] is listed as “diminished”.
For C[C@H]1CCC[C@H](O)CCC/C=C/c2cc(O)cc(O)c2C(=O)O1 [αZEL, α-zearalenol], the remaining activity at 100 µM (TaHSP90-2) was 71 ± 6% and the “ATPase inhibition of ScHsp82p” value (ScHsp82p; toxin concentrations 1 to 150 µM) was “did not elicit a detectable response”.
In the case of C[C@H]1CCCC(=O)CCC/C=C/c2cc(O)cc(O[C@@H]3O[C@H](CO)[C@@H](O)[C@H](O)[C@H]3O)c2C(=O)O1 [ZEN16G, zearalenone-16-O-ß-D-glucopyranoside], the “ATPase inhibition of TaHSP90-2” value (TaHSP90-2) is reported as “did not cause activity reduction”.
With C[C@H]1CCC[C@@H](O)CCC/C=C/c2cc(O)cc(O)c2C(=O)O1 [ßZEL, ß-zearalenol] the IC50 (TaHSP90-2) was about 10 µM, the remaining activity at 100 µM (TaHSP90-2) was 0.7 ± 3.3% and the “remaining ATPase activity of ScHsp82p” value (ScHsp82p) was 8.6 ± 2.4%. The IC50 (ScHsp82p; recombinant 6xHis ScHsp82p, 1 mM ATP, 37°C, 3 h, read-out: IC50, ATPase inhibition of ScHsp82p) was about 15 µM.
With C[C@@H]1C[C@H]2O[C@@H]2/C=C\C=C\C(=O)Cc2c(Cl)c(O)cc(O)c2C(=O)O1 [RAD, radicicol, reference compound] the solubility in medium ([3]; yeast culture medium) was “limited solubility” and the “toxicity to yeast strain” value (yeast strain YZGA515) was “toxic”.
With C[C@H]1CCCC(=O)CCC/C=C/c2cc(O)cc(O)c2C(=O)O1 [ZEN, zearalenone] the IC50 (AtHSP90.1 [1]) was about 10 µM, the “remaining ATPase activity of AtHSP90.1” value (AtHSP90.1 [1]; at 100 µM) was 18 ± 6% and the IC50 (TaHSP90-2) was 20 µM. For the same compound, the remaining activity at 100 µM (TaHSP90-2) was 12 ± 5%, the “induction of AtHSP90.1 (microarray)” value (AtHSP90.1 [5]) was “about 3.7 fold” and the “induction of AtHSP90.1 (quantitative real-time PCR)” value (AtHSP90.1 [6]) was 35 fold. The “remaining ATPase activity of ScHsp82p” value (ScHsp82p) was 59 ± 5%.
